Test results published in paper PMC2686265, “ATP and MO25α Regulate the Conformational State of the STRADα Pseudokinase and Activation of the LKB1 Tumour Suppressor” (PLoS Biology, 2009).
Like-named read-outs stand apart in the source and are kept apart here.

Biological target: T1, STRADα (Homo sapiens, UniProt Q7RTN6)
T1 construct: wild-type and mutant forms of STRADα (residues 54–431) and MO25α (residues 1–341) were expressed individually as GST fusion proteins in E. coli; GST (cleaved yes); made in house; host or cells: E. coli
T1 sequence (Q7RTN6 54-431): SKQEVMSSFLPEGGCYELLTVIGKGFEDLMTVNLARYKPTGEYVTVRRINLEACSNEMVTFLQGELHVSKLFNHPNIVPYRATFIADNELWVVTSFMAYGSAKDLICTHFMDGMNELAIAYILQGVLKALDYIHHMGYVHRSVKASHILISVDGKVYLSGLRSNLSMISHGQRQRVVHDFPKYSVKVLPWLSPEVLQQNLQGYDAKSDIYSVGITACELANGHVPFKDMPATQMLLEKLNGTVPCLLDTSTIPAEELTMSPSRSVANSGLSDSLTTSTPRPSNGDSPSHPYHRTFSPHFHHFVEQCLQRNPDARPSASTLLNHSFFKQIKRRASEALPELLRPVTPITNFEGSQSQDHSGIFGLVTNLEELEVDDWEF
Test: Displacement of TNP-ATP by ATP and ADP (fluorescence)
Format: binding
Settings: STRADα alone, No Mg2+, displacement of 5 µM TNP-ATP
Protocol: Fluorescent measurements of TNP-ATP (Molecular Probes), were obtained at 25°C in assay buffer (with the addition of 0.5–1.0 mM MgCl2 where indicated) using 1-cm pathlength cuvettes in a VARIAN Cary Eclipse Fluorescence spectrophotometer (Varian). Fluorescence was recorded using a 410-nm/540-nm excitation/emission wavelengths from 500 to 600 nm. In all cases, signal from the TNP-ATP buffer control was subtracted as background. For all binding studies, STRADα and STRADα mutants were assayed at 2 µM. In cases where STRADα/MO25α complexes were assayed, wild-type or mutant MO25α (2 µM) were preincubated for at least 2 h at 4°C prior to a fluorescence binding experiment. For saturation binding experiments, concentrated stocks of TNP-ATP were added stepwise, covering a range of concentrations from 0.05 to 30 µM. For displacement experiments, the concentration of TNP-ATP was fixed at 5 µM, and ATP or ADP was titrated in, covering a range of concentrations from 0.05 to 500 µM.
All data were analysed using GraphPad-PRISM software (http://www.graphpad.com). […] In the displacement studies, equilibrium constant values for ATP and ADP were calculated by first determining the logEC50 value, using a standard dose-response equation: F x/F max = minimum+(maximum−minimum)/(1+10^([N]−logEC 50 ^)), where [N] equals the concentration of added nucleotide, and F x/F max represents the fractional occupancy. […]

Kd (read-out: Kd ADP) [nM] | Kd (read-out: Kd ATP) [nM] | SMILES
2000 to 3000 |  | Nc1ncnc2c1ncn2[C@@H]1O[C@H](COP(=O)(O)OP(=O)(O)O)[C@@H](O)[C@H]1O [ADP]
 | 2000 to 3000 | Nc1ncnc2c1ncn2[C@@H]1O[C@H](COP(=O)(O)OP(=O)(O)OP(=O)(O)O)[C@@H](O)[C@H]1O [ATP]
